# Experimental data as given in ChEMBL document CHEMBL1201862, “PubChem BioAssay data set” (2004).
#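 Step 1: Grow cells in 96-well plates. Step 2: Expose to compound for 48 hours at 5 concentrations. Step 3: Interpolate endpoints linearly; if unreached, use highest concentration. Abbreviation: GI50, concentration required for 50% inhibition of growth.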 Activity calls are given as the source filed them. Cut-off read from the data, not from the text of the source: active = GI50 up to about 1.1 µM and inactive = higher.
# Columns and labels:
# Experiment in all cases: growth of human tumour cells (NCI), 48 h
# A549 = test system: A549
# SK-OV-3 = test system: SK-OV-3
# UACC-62 = test system: UACC-62
# OVCAR-8 = test system: OVCAR-8
# SK-MEL-2 = test system: SK-MEL-2
# MDA-MB-231 = test system: MDA-MB-231
# RXF 393 = test system: RXF 393
# ACHN = test system: ACHN
# HCT-116 = test system: HCT-116
# OVCAR-4 = test system: OVCAR-4
# SNB-19 = test system: SNB-19
# HCT-15 = test system: HCT-15
# SR = test system: SR
# UACC-257 = test system: UACC-257
# K562 = test system: K562
# SF-295 = test system: SF-295
# MDA-N = test system: MDA-N
# Hs-578T = test system: Hs-578T
# NCI/ADR-RES = test system: NCI/ADR-RES
# NCI-H226 = test system: NCI-H226
Compound,GI50 (A549),GI50 (SK-OV-3),GI50 (UACC-62),GI50 (OVCAR-8),GI50 (SK-MEL-2),GI50 (MDA-MB-231),GI50 (RXF 393),GI50 (ACHN),GI50 (HCT-116),GI50 (OVCAR-4),GI50 (SNB-19),GI50 (HCT-15) [µM],GI50 (SR),GI50 (UACC-257),GI50 (K562),GI50 (SF-295),GI50 (MDA-N),GI50 (Hs-578T),GI50 (NCI/ADR-RES),GI50 (NCI-H226)
CCCN(CCc1ccc(-c2ccccc2)cc1)CCc1ccc2nn[nH]c2c1,13.1 µM (inactive),14.2 µM (inactive),9.23 µM (inactive),13.7 µM (inactive),15.6 µM (inactive),13.6 µM (inactive),12.2 µM (inactive),12.8 µM (inactive),4.66 µM (inactive),14.6 µM (inactive),13.1 µM (inactive),7.76,3.74 µM (inactive),4.84 µM (inactive),2.94 µM (inactive),12 µM (inactive),6.07 µM (inactive),17.4 µM (inactive),14.7 µM (inactive),15.8 µM (inactive)
O=C1c2ccccc2C(=O)c2c(OCC3CO3)ccc(OCC3CO3)c21 (stereo not given),3.46 µM (inactive),12.4 µM (inactive),2.1 µM (inactive),1.48 µM (inactive),14 µM (inactive),12.5 µM (inactive),3.96 µM (inactive),0.964 µM (active),1.99 µM (inactive),6.52 µM (inactive),7.67 µM (inactive),1.74,0.113 µM (active),6.04 µM (inactive),0.982 µM (active),2.28 µM (inactive),3.8 µM (inactive),16.2 µM (inactive),2.21 µM (inactive),12.4 µM (inactive)
NS(=O)(=O)c1ccc(/N=N/c2ncccc2O)cc1,> 100 µM (inactive),> 100 µM (inactive),> 100 µM (inactive),79.6 µM (inactive),> 100 µM (inactive),> 100 µM (inactive),> 100 µM (inactive),> 100 µM (inactive),39.3 µM (inactive),57.7 µM (inactive),> 100 µM (inactive),> 100,23.1 µM (inactive),> 100 µM (inactive),40.2 µM (inactive),> 100 µM (inactive),> 100 µM (inactive),> 100 µM (inactive),> 100 µM (inactive),> 100 µM (inactive)
N#CC(C#N)=C(N)/C(C#N)=C/c1ccc(O)c(O)c1,> 100 µM (inactive),> 100 µM (inactive),49 µM (inactive),40.5 µM (inactive),> 100 µM (inactive),> 100 µM (inactive),> 100 µM (inactive),> 85.7 µM (inactive),54 µM (inactive),44.8 µM (inactive),> 92.5 µM (inactive),44.5,29.3 µM (inactive),> 95.5 µM (inactive),48.8 µM (inactive),> 20.4 µM (inactive),> 100 µM (inactive),48.4 µM (inactive),41.5 µM (inactive),46.3 µM (inactive)
Cn1nnc2c(C(N)=O)ncn2c1=O [TEMOZOLOMIDE],> 100 µM (inactive),58.7 µM (inactive),> 100 µM (inactive),> 100 µM (inactive),> 100 µM (inactive),> 100 µM (inactive),> 100 µM (inactive),> 100 µM (inactive),> 100 µM (inactive),> 100 µM (inactive),> 100 µM (inactive),> 100,> 100 µM (inactive),> 100 µM (inactive),75.9 µM (inactive),> 100 µM (inactive),> 100 µM (inactive),> 100 µM (inactive),> 100 µM (inactive),> 100 µM (inactive)
Cc1nc(O)c(Cc2ccccc2O)c(-c2ccccc2)n1,> 100 µM (inactive),> 100 µM (inactive),> 100 µM (inactive),> 100 µM (inactive),> 100 µM (inactive),98.9 µM (inactive),> 100 µM (inactive),> 100 µM (inactive),> 100 µM (inactive),> 100 µM (inactive),> 100 µM (inactive),> 100,> 100 µM (inactive),> 100 µM (inactive),> 100 µM (inactive),> 100 µM (inactive),> 100 µM (inactive),> 100 µM (inactive),> 100 µM (inactive),> 100 µM (inactive)
Oc1ccc(-c2nn3c(CCCCCCCCc4nnc5sc(-c6ccc(O)cc6)nn45)nnc3s2)cc1,> 100 µM (inactive),> 100 µM (inactive),> 100 µM (inactive),> 100 µM (inactive),> 100 µM (inactive),> 100 µM (inactive),> 100 µM (inactive),> 100 µM (inactive),> 100 µM (inactive),> 100 µM (inactive),> 100 µM (inactive),> 100,> 100 µM (inactive),> 100 µM (inactive),> 100 µM (inactive),> 100 µM (inactive),> 100 µM (inactive),> 100 µM (inactive),> 100 µM (inactive),> 100 µM (inactive)
CO[C@@H]1C[C@H]2[C@@H]3CC[C@H]([C@H](C)COC(C)=O)[C@@]3(C)CC[C@@H]2[C@@]2(C)CC[C@H]3C[C@]312,> 100 µM (inactive),–,–,> 100 µM (inactive),–,> 100 µM (inactive),> 100 µM (inactive),> 100 µM (inactive),> 100 µM (inactive),> 100 µM (inactive),> 100 µM (inactive),> 100,> 100 µM (inactive),> 100 µM (inactive),63.1 µM (inactive),> 100 µM (inactive),> 100 µM (inactive),> 100 µM (inactive),> 100 µM (inactive),> 100 µM (inactive)
O=S(=O)(c1ccccc1)n1c2cc3cccnc3nc2c2cccnc21,> 100 µM (inactive),> 100 µM (inactive),–,74.1 µM (inactive),> 100 µM (inactive),> 100 µM (inactive),27.6 µM (inactive),62.7 µM (inactive),82.2 µM (inactive),72.3 µM (inactive),40.1 µM (inactive),71.3,10.9 µM (inactive),54.6 µM (inactive),17.3 µM (inactive),49.8 µM (inactive),38.2 µM (inactive),> 100 µM (inactive),> 100 µM (inactive),> 100 µM (inactive)
CC(=O)N(CN1C(=O)CCC1C(=O)O)c1ccccc1 (stereo not given),> 55.1 µM (inactive),> 56.1 µM (inactive),> 51.9 µM (inactive),> 52.4 µM (inactive),> 54.7 µM (inactive),> 48.8 µM (inactive),> 60.3 µM (inactive),> 56.6 µM (inactive),> 56 µM (inactive),> 100 µM (inactive),> 55.1 µM (inactive),> 100,> 100 µM (inactive),> 54.2 µM (inactive),> 53 µM (inactive),> 52.6 µM (inactive),> 58.9 µM (inactive),> 53.3 µM (inactive),29.9 µM (inactive),> 52.7 µM (inactive)
Cc1cc(=O)oc2cc(O)c(CN(C)CC(=O)O)cc12,> 100 µM (inactive),–,> 100 µM (inactive),> 100 µM (inactive),> 100 µM (inactive),> 100 µM (inactive),> 100 µM (inactive),> 100 µM (inactive),> 100 µM (inactive),> 100 µM (inactive),> 100 µM (inactive),> 100,> 100 µM (inactive),> 100 µM (inactive),> 100 µM (inactive),–,> 100 µM (inactive),> 100 µM (inactive),> 100 µM (inactive),> 100 µM (inactive)
CCOC(=O)c1ccc(NC(NC(=O)CC)(C(F)(F)F)C(F)(F)F)cc1,> 100 µM (inactive),> 100 µM (inactive),34.4 µM (inactive),> 100 µM (inactive),> 100 µM (inactive),> 100 µM (inactive),> 100 µM (inactive),55 µM (inactive),> 100 µM (inactive),–,> 100 µM (inactive),97.1,14.1 µM (inactive),> 100 µM (inactive),39.3 µM (inactive),> 100 µM (inactive),> 100 µM (inactive),> 100 µM (inactive),> 100 µM (inactive),> 100 µM (inactive)
COc1ccc(C2CC(c3ccc4ccccc4c3O)=NN2C(C)=O)cc1OC (stereo not given),> 100 µM (inactive),> 100 µM (inactive),75.9 µM (inactive),> 100 µM (inactive),> 100 µM (inactive),> 100 µM (inactive),> 100 µM (inactive),> 100 µM (inactive),> 100 µM (inactive),> 100 µM (inactive),–,> 100,19.1 µM (inactive),> 100 µM (inactive),78.5 µM (inactive),> 100 µM (inactive),> 100 µM (inactive),71.1 µM (inactive),> 100 µM (inactive),> 100 µM (inactive)
COc1cc(C2OC(N)=C(C#N)C3=C2C(C)CCC3)cc(OC)c1OC (stereo not given),–,80.7 µM (inactive),> 100 µM (inactive),63 µM (inactive),71.8 µM (inactive),30.3 µM (inactive),21.9 µM (inactive),97.9 µM (inactive),> 100 µM (inactive),–,72.3 µM (inactive),> 100,0.136 µM (active),> 100 µM (inactive),> 100 µM (inactive),28.9 µM (inactive),> 100 µM (inactive),55.1 µM (inactive),> 100 µM (inactive),68.7 µM (inactive)
